Source: paper PMC10138233 (PLOS ONE, 2023)

Experiments:
[1] = system: SH-SY5Y (human neuroblastoma) cell line; assay: MTT cell viability assay; settings: 48 h
Protocol: (§1) This study utilized SH-SY5Y (human neuroblastoma) cell lines. […] After dissolving the cell line stored in a nitrogen tank for long-term use, the cells were removed from the culture dish with a 0.25 Trypsin/EDTA solution when they reached 70% density in the culture flasks. The cells were incubated in DMEM (Capricorn) supplemented with 10% heat-inactivated fetal bovine serum (FBS) and 0.1 mg/ml of penicillin at 37°C with 5% CO2. The medium was refreshed every 48 hours, and passages were made every 5 days based on cell confluency.
The MTT (3-(4,5-dimethylthiazol-2-yl)-2,5-diphenyltetrazolium bromide) assay is a commonly used colorimetric assay to measure cellular viability. […] The amount of formazan produced can be measured by determining the absorbance of the solution at a specific wavelength, which is proportional to the number of viable cells. This assay is widely used in cell biology and drug discovery research to evaluate the cytotoxic effects of various agents on cell viability.
In this study, the MTT assay was selected as the cell viability test. 12,500 cells were seeded per well in a 96-well plate. The cells were then incubated at 37°C with 5% CO2 for 24 h. After 24 h, the old medium was removed and drugs prepared by serial dilution in 100 μl of DMEM within the determined concentration range were applied to three wells, with one well selected as a control (untreated). The plate was then incubated at 37°C with 5% CO2 for another 48 h. After 48 h, […] of 10% MTT (Roche) solution in DMEM was added to each well, and two empty wells were added with only MTT solution for background measurement. After 4 h, 100 μl of solubilizing buffer was added to each well. The plate was incubated at 37°C with 5% CO2 for 16 h. After 16 h, the cell number in each sample was determined by measuring the absorbance spectrophotometrically at […] using a microplate reader (OMEGA). The data was used to determine the percentage relative to the control and create a dose-cell viability graph.
(§2) All the analysis data from the RTCA device and the data generated from the MARS application using the microplate reader (OMEGA) were calculated in the GraphPad Prism 9.5.1 version using the ordinary one-way ANOVA multiple comparisons Tukey test. The results were graphically represented in Excel. Logarithmic calculations were made from the dose-response graph in Excel to obtain the IC50 values.

[2] = system: SH-SY5Y (human neuroblastoma) cell line; assay: xCELLigence Real Time Cell Analysis (RTCA) of cell viability/proliferation
Protocol: as §1
RTCA system is an analytical technique that follows cellular events such as proliferation by measuring the electric impedance passing through microelectrodes integrated beneath 96-well special plates in real-time. A 16-well e-plate compatible with the RTCA device was used, with 8 wells by 2. Firstly, 100 μl of cell culture was added to the plates to obtain the background density. Then, 3x10^4 cells were seeded in 100 μl of culture medium on top of the culture. After 24 h, the determined concentration ranges were applied.
Therefore, in this study, the concentrations of 5-10-15-25-50 μM were applied to find the optimum dose. […] There was only one study on a different cell line for quinine. […] The concentration range of 25-50-60-70-75-80-100 μM was chosen for etoperidone based on cell viability tests conducted with its analogue, trazadone.
For each selected dose, the drug was applied to two different wells. The first two wells were designated as the control group without drug application. The growth curve data was obtained from the graph generated by the device 48 h after drug application. The RTCA was repeated three times for each drug group. The IC50 calculations and the percent cell viability graphs compared to the control group were obtained from the data obtained from the three repeats.
as §2

SMILES | concentration (and below) with cell viability close to the control, no cytotoxicity [1] | cytotoxic concentration in correlation with RTCA findings [1] | concentration that significantly reduced cell viability compared to the control group (p < 0.001) ([2]; 48 h, RTCA) | concentration up to which no cytotoxicity was observed (cell index) ([2]; 48 h, RTCA) | concentration that significantly reduced cell viability compared to the control group (p < 0.001) ([2]; 48 h, RTCA, listed as galantamine) | safe optimum concentration that does not harm cell viability ([2]; based on both RTCA and MTT) | cytotoxicity [1] | cytotoxicity ([2]; 48 h, RTCA, 150-4800 μM) | IC50 ([2]; Homo sapiens, 48 h, read-out: IC50 ± SEM) | harmful effect on cell viability ([2]; based on both RTCA and MTT)
COc1ccc2c3c1O[C@H]1C[C@@H](O)C=C[C@@]31CCN(C)C2 [Galantamine] | ≤ 10 µM | 25 µM | 100 µM | ≤ 10 µM | 25 to 50 µM | 10 µM | – | – | – | –
Cc1ncc(C[n+]2csc(CCO)c2C)c(N)n1 [Thiamine] | – | – | – | ≤ 4800 µM | – | – | did not show any cytotoxic effect at any concentration | no significant cytotoxicity at any applied concentration | 18.8 mM | no dose of Thiamine applied exhibited harmful effects
CCc1nn(CCCN2CCN(c3cccc(Cl)c3)CC2)c(=O)n1CC [Etoperidone] | ≤ 70 µM | 100 µM | 100 µM | ≤ 70 µM | – | 70 µM | – | – | – | –
Nc1nc2[nH]cc(CN[C@H]3C=C[C@H](O)[C@@H]3O)c2c(=O)[nH]1 [Queuine] | ≤ 1.25 µM | 5 µM | 5 µM | ≤ 1.25 µM | – | 1.25 µM | – | – | – | –
